Assay results as given in the NIST ThermoML archive (doi:10.1021/acs.jced.6b00360).
± gives the expanded uncertainty stated by the source.

Settings: Liquid, Vibrating tube method

Structure (SMILES): C=CCCCCCCCCC(=O)OC [methyl 10-undecenoate]
- mass density (280.15 K, 100 kPa): 897.46 ± 5.7 kg/m3
- mass density (280.15 K, 40000 kPa): 914.37 ± 5.8 kg/m3
- mass density (293.15 K, 100 kPa): 886.83 ± 5.6 kg/m3
- mass density (293.15 K, 40000 kPa): 906.75 ± 5.8 kg/m3
- mass density (303.15 K, 100 kPa): 878.63 ± 5.5 kg/m3
- mass density (303.15 K, 40000 kPa): 895.63 ± 5.7 kg/m3
- mass density (313.15 K, 100 kPa): 870.71 ± 5.5 kg/m3
- mass density (313.15 K, 40000 kPa): 888.48 ± 5.7 kg/m3
- mass density (323.15 K, 100 kPa): 862.33 ± 5.4 kg/m3
- mass density (323.15 K, 40000 kPa): 881.75 ± 5.6 kg/m3
- mass density (333.15 K, 100 kPa): 854.49 ± 5.3 kg/m3
- mass density (333.15 K, 40000 kPa): 874.61 ± 5.6 kg/m3
- mass density (343.15 K, 100 kPa): 845.8 ± 5.3 kg/m3
- mass density (352.15 K, 100 kPa): 838.42 ± 5.2 kg/m3

Structure (SMILES): COC(=O)CCCCCCCCCCC(=O)OC [dimethyl dodecanoate]
- mass density (313.15 K, 101.33 kPa): 959.4 ± 3.9 kg/m3
- mass density (323.15 K, 101.33 kPa): 951 ± 3.9 kg/m3
- mass density (333.15 K, 101.33 kPa): 943.1 ± 3.9 kg/m3
- mass density (343.15 K, 101.33 kPa): 934.4 ± 3.8 kg/m3
- mass density (352.15 K, 101.33 kPa): 927 ± 3.8 kg/m3
